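Five compound concentrations were applied to cells in 96-well plates for 48 hours; endpoints were derived by simple linear interpolation of the resulting dose-response curve. GI50: concentration for 50% inhibition of growth. TGI: total growth inhibition.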
What was measured:
Assay in all cases: growth of human tumour cells (NCI), 48 h
NCI-H226 lung = tested on: NCI-H226 lung
SW-620 colon = tested on: SW-620 colon
CCRF-CEM leukemia = tested on: CCRF-CEM leukemia
SR leukemia = tested on: SR leukemia
ACHN renal = tested on: ACHN renal
HT29 colon = tested on: HT29 colon
NCI-H460 lung = tested on: NCI-H460 lung
K-562 leukemia = tested on: K-562 leukemia
SK-MEL-28 melanoma = tested on: SK-MEL-28 melanoma
SN12C renal = tested on: SN12C renal
IGROV1 ovarian = tested on: IGROV1 ovarian
MCF7 breast = tested on: MCF7 breast
NCI/ADR-RES ovarian = tested on: NCI/ADR-RES ovarian
MOLT-4 leukemia = tested on: MOLT-4 leukemia
UO-31 renal = tested on: UO-31 renal
HCC-2998 colon = tested on: HCC-2998 colon
TK-10 renal = tested on: TK-10 renal
RPMI-8226 leukemia = tested on: RPMI-8226 leukemia
HCT-116 colon = tested on: HCT-116 colon
M14 melanoma = tested on: M14 melanoma
HOP-62 NSCLC = tested on: HOP-62 NSCLC
SF-539 CNS = tested on: SF-539 CNS
RXF 393 renal = tested on: RXF 393 renal
SNB-75 CNS = tested on: SNB-75 CNS
KM12 colon = tested on: KM12 colon
SK-MEL-2 melanoma = tested on: SK-MEL-2 melanoma
PC-3 prostate = tested on: PC-3 prostate
EKVX NSCLC = tested on: EKVX NSCLC
DU-145 prostate = tested on: DU-145 prostate
OVCAR-3 ovarian = tested on: OVCAR-3 ovarian
NCI-H522 lung = tested on: NCI-H522 lung
MDA-MB-231 breast = tested on: MDA-MB-231 breast
A498 renal = tested on: A498 renal
U251 CNS = tested on: U251 CNS
T-47D breast = tested on: T-47D breast
SNB-19 CNS = tested on: SNB-19 CNS
NCI-H23 lung = tested on: NCI-H23 lung
SF-295 CNS = tested on: SF-295 CNS
UACC-62 melanoma = tested on: UACC-62 melanoma
OVCAR-4 ovarian = tested on: OVCAR-4 ovarian
COLO 205 colon = tested on: COLO 205 colon
786-0 renal = tested on: 786-0 renal
SK-MEL-5 melanoma = tested on: SK-MEL-5 melanoma
HS 578T breast = tested on: HS 578T breast
SF-268 CNS = tested on: SF-268 CNS
HCT-15 colon = tested on: HCT-15 colon
CAKI-1 renal = tested on: CAKI-1 renal
A549 NSCLC = tested on: A549 NSCLC
UACC-257 melanoma = tested on: UACC-257 melanoma
SK-OV-3 ovarian = tested on: SK-OV-3 ovarian
MDA-MB-435 = tested on: MDA-MB-435
HOP-92 NSCLC = tested on: HOP-92 NSCLC
LOX IMVI melanoma = tested on: LOX IMVI melanoma
OVCAR-5 ovarian = tested on: OVCAR-5 ovarian
MALME-3M melanoma = tested on: MALME-3M melanoma
OVCAR-8 ovarian = tested on: OVCAR-8 ovarian
HL-60(TB) leukemia = tested on: HL-60(TB) leukemia

Compound: O=C(Nc1cccc(C(F)(F)F)c1)Nc1cc(S(=O)(=O)NC2CC2)ccc1-c1ccsc1
- GI50 (NCI-H226 lung): 4.82 µM
- TGI (NCI-H226 lung): 19 µM
- GI50 (SW-620 colon): 4.45 µM
- TGI (SW-620 colon): 18.5 µM
- GI50 (CCRF-CEM leukemia): 3.25 µM
- TGI (CCRF-CEM leukemia): 18.3 µM
- GI50 (SR leukemia): 2.72 µM
- TGI (SR leukemia): 8.92 µM
- GI50 (ACHN renal): 1.83 µM
- TGI (ACHN renal): 3.61 µM
- GI50 (HT29 colon): 4.25 µM
- TGI (HT29 colon): 16.1 µM
- GI50 (NCI-H460 lung): 3.4 µM
- TGI (NCI-H460 lung): 11.6 µM
- GI50 (K-562 leukemia): 3.42 µM
- TGI (K-562 leukemia): 13.5 µM
- GI50 (SK-MEL-28 melanoma): 5.1 µM
- TGI (SK-MEL-28 melanoma): 18.5 µM
- GI50 (SN12C renal): 4.33 µM
- TGI (SN12C renal): 18.3 µM
- GI50 (IGROV1 ovarian): 7.18 µM
- TGI (IGROV1 ovarian): 25.4 µM
- GI50 (MCF7 breast): 3.26 µM
- TGI (MCF7 breast): 15 µM
- GI50 (NCI/ADR-RES ovarian): 6.05 µM
- TGI (NCI/ADR-RES ovarian): 26.9 µM
- GI50 (MOLT-4 leukemia): 3.02 µM
- TGI (MOLT-4 leukemia): 9.53 µM
- GI50 (UO-31 renal): 3.3 µM
- TGI (UO-31 renal): 13.3 µM
- GI50 (HCC-2998 colon): 6.15 µM
- TGI (HCC-2998 colon): 19.8 µM
- GI50 (TK-10 renal): 4.65 µM
- TGI (TK-10 renal): 17.2 µM
- GI50 (RPMI-8226 leukemia): 2.57 µM
- TGI (RPMI-8226 leukemia): 8.22 µM
- GI50 (HCT-116 colon): 3.51 µM
- TGI (HCT-116 colon): 13.4 µM
- GI50 (M14 melanoma): 4.32 µM
- TGI (M14 melanoma): 18.4 µM
- GI50 (HOP-62 NSCLC): 5.11 µM
- TGI (HOP-62 NSCLC): 18.5 µM
- GI50 (SF-539 CNS): 4.22 µM
- TGI (SF-539 CNS): 16.4 µM
- GI50 (RXF 393 renal): 4.98 µM
- TGI (RXF 393 renal): 18.8 µM
- GI50 (SNB-75 CNS): 3.45 µM
- TGI (SNB-75 CNS): 16.4 µM
- GI50 (KM12 colon): 4.46 µM
- TGI (KM12 colon): 16.1 µM
- GI50 (SK-MEL-2 melanoma): 3.15 µM
- TGI (SK-MEL-2 melanoma): 13.7 µM
- GI50 (PC-3 prostate): 3.4 µM
- TGI (PC-3 prostate): 18.6 µM
- GI50 (EKVX NSCLC): 2.45 µM
- TGI (EKVX NSCLC): 12.2 µM
- GI50 (DU-145 prostate): 5.41 µM
- TGI (DU-145 prostate): 20.3 µM
- GI50 (OVCAR-3 ovarian): 4.02 µM
- TGI (OVCAR-3 ovarian): 14.9 µM
- GI50 (NCI-H522 lung): 3.05 µM
- TGI (NCI-H522 lung): 13 µM
- GI50 (MDA-MB-231 breast): 3.43 µM
- TGI (MDA-MB-231 breast): 14.8 µM
- GI50 (A498 renal): 2.45 µM
- TGI (A498 renal): 7.31 µM
- GI50 (U251 CNS): 3.78 µM
- TGI (U251 CNS): 13.6 µM
- GI50 (T-47D breast): 3.16 µM
- TGI (T-47D breast): 15 µM
- GI50 (SNB-19 CNS): 2.99 µM
- TGI (SNB-19 CNS): 13 µM
- GI50 (NCI-H23 lung): 4.03 µM
- TGI (NCI-H23 lung): 16.6 µM
- GI50 (SF-295 CNS): 3.16 µM
- TGI (SF-295 CNS): 11.8 µM
- GI50 (UACC-62 melanoma): 2.93 µM
- TGI (UACC-62 melanoma): 13.8 µM
- GI50 (OVCAR-4 ovarian): 3.78 µM
- TGI (OVCAR-4 ovarian): 15.4 µM
- GI50 (COLO 205 colon): 2.71 µM
- TGI (COLO 205 colon): 7.41 µM
- GI50 (786-0 renal): 6.1 µM
- TGI (786-0 renal): 20.9 µM
- GI50 (SK-MEL-5 melanoma): 2.31 µM
- TGI (SK-MEL-5 melanoma): 5.65 µM
- GI50 (HS 578T breast): 8.96 µM
- TGI (HS 578T breast): 35.8 µM
- GI50 (SF-268 CNS): 5.95 µM
- TGI (SF-268 CNS): 21.3 µM
- GI50 (HCT-15 colon): 3.27 µM
- TGI (HCT-15 colon): 12.8 µM
- GI50 (CAKI-1 renal): 4.47 µM
- TGI (CAKI-1 renal): 18.6 µM
- GI50 (A549 NSCLC): 3.68 µM
- TGI (A549 NSCLC): 14.7 µM
- GI50 (UACC-257 melanoma): 3.84 µM
- TGI (UACC-257 melanoma): 14.4 µM
- GI50 (SK-OV-3 ovarian): 4.39 µM
- TGI (SK-OV-3 ovarian): 17 µM
- GI50 (MDA-MB-435): 3.61 µM
- TGI (MDA-MB-435): 13.1 µM
- GI50 (HOP-92 NSCLC): 1.73 µM
- TGI (HOP-92 NSCLC): 7.45 µM
- GI50 (LOX IMVI melanoma): 4.5 µM
- TGI (LOX IMVI melanoma): 16.9 µM
- GI50 (OVCAR-5 ovarian): 5.96 µM
- TGI (OVCAR-5 ovarian): 20.2 µM
- GI50 (MALME-3M melanoma): 3.39 µM
- TGI (MALME-3M melanoma): 11.1 µM
- GI50 (OVCAR-8 ovarian): 4.07 µM
- TGI (OVCAR-8 ovarian): 18.1 µM
- GI50 (HL-60(TB) leukemia): 3.01 µM
- TGI (HL-60(TB) leukemia): 8.03 µM

Source: PubChem BioAssay (NCI)
